Results on ten molecules are retold here after PubChem BioAssay (NCI).

Structures are written as SMILES.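 Growth conditions: 96-well plates. Treatment: test compound, 48 hours, 5 concentrations. Analysis: linear interpolation between bracketing concentrations; unreached endpoints set to highest concentration. The concentration for 50% growth inhibition is given as GI50. TGI: total growth inhibition.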 Where only a bound is given, the exact number is not on record here.

What all share (assay): NCI-60 cell line screen, 48 h
Assay [1] concerns SK-OV-3 ovarian.
Assay [2] deals with SK-MEL-5 melanoma.
The test system of assay [3] is HOP-92 NSCLC.
Assay [4] deals with SF-295 CNS.
In assay [5] the test system is RXF 393 renal.
Assay [6] concerns MDA-MB-231 breast.
The test system of assay [7] is HCT-15 colon.
Assay [8] concerns CAKI-1 renal.
The test system of assay [9] is LOX IMVI melanoma.
The test system of assay [10] is UACC-62 melanoma.

For the molecule `C/C=C(\C)C(=O)OC1C2C(C)C(=O)OC2C(O)C(C)C2C=CC(=O)C21C` (stereo not given), the TGI was 39.6 µM in [1]; 21.4 µM in assay [2]; 50.5 µM in assay [3]; 32.7 µM in [4]; 24.5 µM in assay [5]; 13.7 µM in [6]. Also, the TGI in assay [7] came to 34.5 µM; in [8] it was 28.4 µM; in assay [9] it was 28.5 µM; in assay [10], 26.1 µM.

Regarding `CS(=O)(=O)N(CC(=O)O)Cc1ccccc1`, the TGI in [1], in assay [2], in [3], in assay [4], in [5] and in [6] was more than 100 µM throughout. The TGI in [7], in [8], in assay [9] and in assay [10] was more than 100 µM throughout.

On to `CCNC(=O)c1ccc2c(c1)nc(-c1ccc(Cl)cc1)n2-c1cc(C(C)(C)C)[nH]n1`, for which the GI50 is 3.6 µM in assay [1]; 1.54 µM in assay [2]; 1.36 µM in [3]; 2.82 µM in [4]; 1.81 µM in assay [5]; 5.56 µM in assay [6]. In addition, the GI50 in assay [7] was 3.26 µM; in [8] it was 2.84 µM; in [9] it was 3.54 µM; in assay [10] it was 2.05 µM. Further, the TGI was found to be 17.3 µM in [1]; 5.72 µM in assay [2]; 7.77 µM in assay [3]; 11.6 µM in assay [4]; 5.55 µM in assay [5]; 28.5 µM in [6]. Also, the TGI was 18 µM in assay [7], 46.6 µM in [8], 14.4 µM in assay [9] and 7.61 µM in assay [10].

For the molecule `O=C(Nc1cccc(-n2cc(-c3ccncc3)c(-c3ccc(O)c(Cl)c3)n2)c1)c1ccc(N2CCOCC2)c(C(F)(F)F)c1`, the GI50 was more than 50 µM in assay [1]; 1.75 µM in assay [2]; 0.994 µM in assay [3]; 1.24 µM in [4]; 0.283 µM in assay [5]; 0.857 µM in [6]. Further, the GI50 is 1.21 µM in assay [7], 2.24 µM in assay [8], 1.61 µM in assay [9] and more than 50 µM in [10]. For the same molecule, the TGI in assay [1] was more than 50 µM; in [2], more than 50 µM; in [3] it was 3.81 µM; in [4], 4.32 µM; in assay [5] it was 2.25 µM; in [6], 3.09 µM. The TGI in assay [7], in assay [8], in [9] and in assay [10] was more than 50 µM each time.

In the case of `COc1ccc2cc(C(=O)/C=C/c3ccco3)ccc2c1`, the GI50 in assay [1] is 53.1 µM; in [2] it was 12.2 µM; in assay [3], 62.6 µM; in assay [4] it was 38.8 µM; in assay [5] it was 15.9 µM; in assay [6] it was 29.2 µM. Also, the GI50 in assay [7] is 25.6 µM; in assay [8] it was 38.7 µM; in [9], 54 µM; in assay [10] it was 26.6 µM. For the same molecule, the TGI in [1] was more than 100 µM; in [2], 31.1 µM; in [3], more than 100 µM; in assay [4], more than 100 µM; in [5] it was 38.7 µM; in [6] it was more than 100 µM. The TGI in assay [7], in assay [8], in assay [9] and in assay [10] was more than 100 µM in each case.

Consider `O=C(NCc1cccs1)OC1CC2CCC1C2` (stereo not given), for which the TGI in assay [1], in assay [2], in [3], in assay [4], in assay [5] and in assay [6] was more than 100 µM throughout. Besides, the TGI in assay [7], in assay [8], in [9] and in [10] was more than 100 µM each time.

Regarding `COC(=O)c1cc(NC(=O)CN(CCN(CC(=O)O)CC(=O)Nc2ccc(O)c(C(=O)OC)c2)CC(=O)O)ccc1O`, the GI50 in assay [1] is 45.5 µM; in [2] it was 47.2 µM; in [3], more than 100 µM; in assay [4], 25.8 µM; in [5] it was more than 100 µM; in [6] it was more than 100 µM. The GI50 in [7] was more than 100 µM; in [8], 32 µM; in [9], 38.5 µM; in assay [10], 48.2 µM. In addition, the TGI in assay [1], in assay [2], in assay [3], in [4], in assay [5] and in [6] was more than 100 µM throughout. Also, the TGI in assay [7], in assay [8], in assay [9] and in [10] was more than 100 µM each time.

On to `CCCCC/C=C\C/C=C/CCCCCCCCNC(=O)Nc1ccc([N+](=O)[O-])cc1`, for which the GI50 in assay [1] was 40.7 µM; in assay [2], 14.8 µM; in [3] it was 4.27 µM; in assay [4] it was 4.96 µM; in assay [5] it was 24.1 µM; in assay [6], 13.9 µM. The GI50 in assay [7] was 8.81 µM; in [8], 5.9 µM; in assay [9] it was 5.75 µM; in [10] it was 2.9 µM. The TGI in assay [1] is more than 100 µM; in assay [2], 32.4 µM; in assay [3], 35.4 µM; in assay [4], more than 100 µM; in assay [5], 73.8 µM; in assay [6], more than 100 µM. Further, the TGI in assay [7], in [8], in assay [9] and in [10] was more than 100 µM throughout.

With `CS(=O)(=O)c1ccc(-c2[nH]c3ccc(F)cc3c2/C=N/NC(N)=S)cc1`, the GI50 in assay [1] was 1.86 µM; in assay [2] it was 0.634 µM; in [3], 0.574 µM; in [4] it was 0.899 µM; in [5], 1.21 µM; in assay [6], 1.65 µM. Also, the GI50 in [7] was 0.611 µM; in assay [8], 3.86 µM; in assay [9] it was 0.84 µM; in assay [10], 0.531 µM. Moreover, the TGI in [1] was more than 100 µM; in assay [2], 11.9 µM; in assay [3], 52.9 µM; in [4], 13.1 µM; in [5], 63.1 µM; in assay [6] it was more than 100 µM. The TGI in assay [7], in assay [8], in [9] and in [10] was more than 100 µM throughout.

On to `O=c1cc(-c2ccccc2)nc2cc(-c3ccco3)[nH]n12`, for which the GI50 in assay [1] is 14.2 µM; in assay [2], 6.58 µM; in [3], 10.5 µM; in assay [4] it was 3.64 µM; in assay [5] it was 18.9 µM; in assay [6], 7.84 µM. In addition, the GI50 in assay [7] is 6.16 µM; in assay [8] it was 5.21 µM; in [9] it was 15.2 µM; in assay [10], 5.66 µM. In addition, the TGI in [1] was 82.8 µM; in assay [2], 22.1 µM; in assay [3] it was 93.3 µM; in assay [4] it was 25.6 µM; in assay [5] it was more than 100 µM; in assay [6], more than 100 µM. Besides, the TGI in [7] is more than 100 µM; in [8] it was 55.4 µM; in assay [9], more than 100 µM; in assay [10], more than 100 µM.
